Data: article PMC2394492 (British Journal of Cancer, 2003)
Blank lines part the entries; values can stand above or below the compound they belong to.

Columns and labels:
[1] = cited from earlier work
[2] = test system: dihydropyrimidine dehydrogenase (DPD); conditions: in vitro; background statement, no reference given; cited from earlier work
[3] = Plasma pharmacokinetics of 5-FU and FBAL after PVI of 5-FU and oral S-1 in patients; format: in vivo, human
Procedure: Infusion was carried out with the use of a battery-operated pump (STC-508, Terumo Co., Ltd., Tokyo, Japan) for five consecutive days. […] After a washout period of 9 days, patients received S-1 in two divided doses daily for 28 consecutive days. S-1 was administered orally within 1 h after breakfast and supper, at about 0900 and 1900 hours The daily dose of S-1 in terms of tegafur was 80 mg day^−1 in patients with a body surface area (BSA) of <1.25 m^2, 100 mg day^−1 in those with a BSA of ⩾1.25 m^2 to <1.5 m^2, and 120 mg day^−1 in those with a BSA of ⩾1.5 m^2.
On days 2–4, one blood sample was obtained at 0900 hours before the start of the next 24-h cycle. During oral administration of S-1, blood samples were taken on day 1 before the first dose of the day and at 1, 2, 4, 6, and 10 h. On days 2–4 of S-1 treatment, blood samples were taken before administration in the morning and at 4 and 10 h. On day 5, blood samples were obtained at 0, 2, 4, and 10 h. Peripheral blood samples (6 ml per sampling time) were collected in heparinised tubes and centrifuged at 1000 g for 15 min at 4°C. The plasma was stored at −20°C until analysis. Urine was collected from 0 to 24 h after the start of drug administration on day 1 of each treatment and refrigerated during the collection period.

[4] = biological target: T1, dihydropyrimidine dehydrogenase (DPD) (Homo sapiens, UniProt Q12882); assay: Plasma uracil concentration as surrogate marker of DPD inhibition (pharmacodynamic analysis); format: in vivo; conditions: for AUC of uracil: 10 patients, surrogate marker of DPD inhibition
T1 construct: from tissue; host or cells: patients in vivo (DPD mainly in the liver); plasma sampled
T1 sequence (Q12882 4-1025): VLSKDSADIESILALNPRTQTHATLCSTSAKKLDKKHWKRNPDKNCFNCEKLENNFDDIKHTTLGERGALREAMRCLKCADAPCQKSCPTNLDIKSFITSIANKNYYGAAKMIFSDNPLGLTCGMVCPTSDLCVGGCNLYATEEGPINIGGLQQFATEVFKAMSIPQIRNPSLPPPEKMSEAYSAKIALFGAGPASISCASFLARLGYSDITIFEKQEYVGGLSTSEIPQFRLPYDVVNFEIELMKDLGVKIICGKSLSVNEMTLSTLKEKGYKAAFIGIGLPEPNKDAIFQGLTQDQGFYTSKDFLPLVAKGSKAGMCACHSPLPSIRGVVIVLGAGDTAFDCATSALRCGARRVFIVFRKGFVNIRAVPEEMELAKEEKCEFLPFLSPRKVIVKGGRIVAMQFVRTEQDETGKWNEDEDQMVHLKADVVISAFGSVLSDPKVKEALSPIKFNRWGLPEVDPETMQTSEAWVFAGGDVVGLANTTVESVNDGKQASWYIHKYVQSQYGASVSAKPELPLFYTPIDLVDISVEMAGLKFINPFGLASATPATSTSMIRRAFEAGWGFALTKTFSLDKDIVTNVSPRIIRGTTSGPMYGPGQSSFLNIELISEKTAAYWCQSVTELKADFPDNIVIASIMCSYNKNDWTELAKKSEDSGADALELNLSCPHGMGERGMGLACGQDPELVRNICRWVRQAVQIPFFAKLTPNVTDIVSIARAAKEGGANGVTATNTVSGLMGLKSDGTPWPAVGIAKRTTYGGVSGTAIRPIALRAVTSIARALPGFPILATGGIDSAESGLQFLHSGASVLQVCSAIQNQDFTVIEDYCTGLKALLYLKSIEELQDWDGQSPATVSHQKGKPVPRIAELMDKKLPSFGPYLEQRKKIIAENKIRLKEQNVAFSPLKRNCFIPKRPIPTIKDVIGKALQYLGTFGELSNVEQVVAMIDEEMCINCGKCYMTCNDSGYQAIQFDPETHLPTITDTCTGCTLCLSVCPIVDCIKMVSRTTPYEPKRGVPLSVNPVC
Procedure: All 10 patients received 5-FU by PVI at a rate of 250 mg m^−2 day^−1 via a peripheral vein. Infusion was carried out with the use of a battery-operated pump (STC-508, Terumo Co., Ltd., Tokyo, Japan) for five consecutive days. The assigned daily dose of 5-FU was diluted in 500 ml of normal saline for infusion.
On days 1 and 5 of 5-FU PVI, blood samples were taken at 0 (before administration), 2, 6, and 10 h after the start of the infusion (0900 hours in all patients). On days 2–4, one blood sample was obtained at 0900 hours before the start of the next 24-h cycle. […] On day 5, blood samples were obtained at 0, 2, […], and 10 h. Peripheral blood samples (6 ml per sampling time) were collected in heparinised tubes and centrifuged at 1000 g for 15 min at 4°C. The plasma was stored at −20°C until analysis. Urine was collected from 0 to 24 h after the start of drug administration on day 1 of each treatment and refrigerated during the collection period.
Analysis of 5-FU and uracil was carried out as described by [Matsushima et al (1997)], with minor modification. 5-Fluorouracil and uracil were extracted with ethyl acetate after washing with dichloromethane and were subjected to a reaction to induce their trimethylsilyl derivatives. 5-Fluorouracil and uracil were analysed by electron impact ionisation gas-chromatography/mass-spectrometry (GC–MS). For analysis of 5-FU by GC–MS, stable isotopes were used as internal standards. The measurable ranges of plasma or urine levels were 1–400 ng ml^−1 for 5-FU and 5–2000 ng ml^−1 for uracil. For analysis of FBAL, plasma was deproteinised with ethanol and washed with dichloromethane. F-β-alanine was treated with 2,4-dinitrofluorobenzene to derive its dinitrophenyl ester, and the reaction product was extracted with dichloromethane under acidic conditions. The reaction product was separated by high-pressure liquid chromatography (LC) with a reversed-phase column, and LC/tandem-mass spectrometry was performed with the use of negative ion-electron spray ionisation. DL-norvaline was used as an internal standard. […]

[5] = patients given 5-FU by PVI, ref Lokich et al, 1989

Compound: CCCCCOC(=O)Nc1nc(=O)n([C@@H]2O[C@H](C)[C@@H](O)[C@H]2O)cc1F [capecitabine]
incidence of grade 3 HFS ([1]; capecitabine, ref Van Cutsem et al, 2000, 2001, Hoff et al, 2001): 15–18%
incidence of HFS ([1]; capecitabine, ref Van Cutsem et al, 2000): 45%
incidence of cardiotoxicity ([1]; randomised phase II trial, metastatic colorectal cancer, five out of 108, ref Van Cutsem et al, 2000): 5%
incidence of paresthesia ([1]; randomised phase II trial, metastatic colorectal cancer, ref Van Cutsem et al, 2000): 12%

Compound: Oc1cc(O)c(Cl)cn1 [CDHP, 5-chloro-2,4-dihydroxypyridine]
DPD-inhibitory activity relative to that of uracil [2]: 180 fold

time to steady state of plasma 5-FU concentration after the start of PVI ([3]; PVI of 5-FU): 2 h
AUC0–10 h of 5-FU ([3]; plasma, day 5 (abstract)): 728 ± 113 ng·h/mL
AUC of uracil ([4]; Day 1, 0 to 10 h): 200 ± 60 ng·h/mL
AUC of uracil ([4]; Day 5, 0 to 10 h): 252 ± 60 ng·h/mL
AUC0–10 h of uracil ([4]; day 5 (abstract)): 252 ± 60 ng·h/mL
Compound: O=c1[nH]cc(F)c(=O)[nH]1 [5-FU, 5-fluorouracil]
dose-limiting toxicity (DLT) ([1]; 5-FU by PVI, ref Lokich et al, 1989): HFS
incidence of grade 3 leukopenia [1, 5]: 1%
incidence of hand–foot syndrome [1, 5]: about 23%
incidence of stomatitis [1, 5]: about 23%
